Source: patent US11186581B2, “2-(1,3-dimethyl-2,6-dioxo-1,2,3,6-tetrahydro-7H-purin-7-yl)-N-(6-(2-hydroxyphenyl)pyridazin-3-yl)acetamide as a Wnt pathway modulator” (Agency for Science, Technology and Research, priority 2017, dated 2021)

Test system: HEK293-STF3A cells
Experiment: STF3A assay (Wnt reporter luciferase)
Format: cell-based
Settings: Homo sapiens, 24 h, 1 day of treatment, read-out: IC50 activities on STF3A cells
Protocol: HEK293-STF cell line was modified from Human embryonic kidney cell line HEK293 transfected with the STF reporter. HEK293-STF3 A cell line was further modified from HEK293-STF cell line to express Wnt3A. This cell line was used to identify compounds that regulate either early or late signalling components of the Wnt pathway. L-Wnt3 A (ATCC, #CRL-2647) cell line was used for providing Wnt3 A conditioned media. The three cell lines were grown in DMEM (Dulbecco's Modified Eagle Medium) with 10% FBS (fetal bovine serum) incubated in 37° C. with 5% CO2.
2×10^4 HEK293-STF3A cells in 75 μl culture media were seeded in each well of white 96 well plates (Greiner #655098) and incubated overnight at 37° C. 25 μl serially diluted compound was added to the cells to give final concentration of 50 μM to 1.5 nM. After 1 day of treatment, 100 μl of Steady-Glo® Luciferase Assay reagent (#E2520, Promega) was added to each well and incubated for 10 minutes at room temperature. Luminescence was measured using Tecan Safire2® plate reader.

COc1ccccc1-c1ccc(NC(=O)Cn2cnc3c2c(=O)n(C)c(=O)n3C)nn1 [Compound 2, reference compound]
IC50: > 10 µM
